Test results: patent US10391070B2, “Compositions and methods for treating neurological diseases or injury” (MUSC FOUNDATION FOR RESEARCH DEVELOPMENT, priority 2012, dated 2019)

What was measured:
c-fos = c-fos gene expression in PTZ-treated zebrafish larvae; type: in vivo, zebrafish (Danio rerio); settings: 7 dpf zebrafish; for reduction of c-fos gene expression compared to PTZ alone: concentrations of Table 9
Method: Ten 7 dpf larvae were placed in 500 μL tank water in wells of a 48-well cell-culture plate and appropriate concentrations of drugs were added as in the behavior study (Table 9). After a 1 h pre-incubation period, PTZ was added to a final concentration of 15 mM in appropriate wells and larvae were incubated for a further 45 min. Fish were quickly euthanized by incubating the plate in an ice-water bath for 15 min. Fish were removed from each well and all liquid removed before freezing at −80° C. RNA was extracted using Trizol (Invitrogen) followed by the RNeasy Mini kit (Qiagen). Frozen embryos were homogenized in 800 μL Trizol using in-tube pestles and a motorized homogenizer. Following a 5-min incubation at room temperature, 200 μL chloroform was added and the samples were centrifuged at 12,000 g for 10 min. The aqueous phase was transferred to a new tube and 250 μL 100% ethanol was added and the samples mixed. This mixture was then transferred to the Qiagen minicolumn assembly and the protocol followed as described with the kit. Samples were eluted in 30 μL RNase free water and concentration was determined using the Nanodrop instrument (Thermo Fisher). cDNA was prepared using the RETROscript kit (Ambion) with 500 ng total RNA. cDNA was then diluted 1:1 with sterile dH2O and 2.5 μL of this cDNA was used in the QPCR reaction with SsoAdvanced SYBR Green Supermix (BioRad) and c-fos primers designed to span an intron-exon junction (c-fos F: […], SEQ ID NO:9; c-fos R: […], SEQ ID NO:10) ([…] each) in the BioRad CFX96 RealTime instrument. L13a and EF1a gene expression were used for normalization (Rahn et al., 2013). The following cycle conditions were used: 95° C./3 min, 40 cycles of 95° C./15 s, 62° C./30 s, followed by 95° C. 30 s and a dissociation curve. Samples were run in duplicate. The 2^−ΔΔCt method was used to quantify gene expression, whereby all gene Ct values were first normalized to Ct values of the geometric mean of the Ct of L13a and EF1a (Livak and Schmittgen, 2001). Treated samples were then normalized to the tank water control and converted to fold change.

HT22 cells = assay: t-BuOOH toxicity protection (MTS cell viability); type: cell-based, mouse; settings: HT22, 50 μM t-BuOOH
Method: Cell viability was assessed by the ability of the viable cells to metabolize 3-(4,5-dimethylthiazol-2-yl)-5-(3-carboxymethoxyphenyl)-2(4-sulfophenyl)2-H-tetrazolium, inner salt (MTS), as described previously (Cory et al., 1991). The metabolism of tetrazolium salts is often used to measure cellular proliferation, but in the system used here, it has been previously shown to correlate well with cell viability as determined by trypan blue exclusion and colony-forming assays (Davis and Maher, 1994). Briefly, HT-22 cells were seeded onto 96-well plates at 5.0×10^3 cells per well in 75 μL of medium and maintained at 37° C. in 5% CO2 overnight prior to the initiation of experimental treatments. For glutamate toxicity testing, cells were subsequently treated with 25 μL of medium containing glutamate (monosodium glutamate, Sigma, 1 M stock concentration in media, to achieve a final concentration of 10 mM) plus inhibitors (stock in DMSO) and maintained at 37° C. in 5% CO2. For t-BuOOH toxicity testing, cells were subsequently treated with 25 μL of medium containing t-BuOOH (Sigma, 10 mM stock concentration, to achieve a final concentration of 50 μM) plus inhibitors (stock in DMSO) and maintained at 37° C. in 5% CO2 for 3 hours, after which the media was removed, cells washed gently with HBSS, the media replaced with standard culture media, and the cells returned to incubation at 37° C. in 5% CO2. For both glutamate and t-BuOOH treatments, 10 μl of MTS solution was added to each well 24 hrs after initial treatment, and the cells were maintained in growth medium for 2 h at 37° C. Absorbance at 490 nm was subsequently measured by a SpectraMax 190 plate reader (Molecular Devices). The growth medium without cells in the presence of MTS solution was used as solution background and untreated cells were considered the controls. Cell viability was calculated as a percentage compared with untreated controls. EC50 determinations were based on 12-point titrations using GraphPad Prism, and each experiment was repeated at least four times. Morphology of HT22 cells following treatments was determined by phase-contrast microscopy. Digital images of cells grown on cell culture plates were captured at 10× magnification.
In light of the findings that the protection against glutamate induced cell death provided by VK2, 2q, and 2j, are at least partially mediated by the attenuation of the increased production of endogenous ROS, the inventors also examined the effects of these compounds on tert-butylhydroperoxide (t-BuOOH) induced cell death. t-BuOOH is a short chain analog of the lipid hydroperoxides formed from peroxidation reactions during oxidative stress that is cytotoxic to cells (Lemasters and Nieminen, 1997). […] It is well documented that cells undergo rapid and extensive fragmentation in the early stages of cell death (Bossy-Wetzel et al., 2003; Frank et al., 2001; Breckenridge et al., 2008; Jagasia et al., 2005; Lee et al., 2004). Recent studies have shown that mitochondrial fragmentation is regulated by the translocation of dynamin-related protein 1 (Drp1) from the cytosol to the mitochondria, where it assembles to form spirals at division sites (Smirnova et al., 2001). Although the exact molecular mechanism is still not well studied, the activity of Drp1 is regulated by the phosphorylation and dephosphorylation of specific serine residues by protein kinases and phosphatases such as calcineurin and the PGAM5 (Wang et al., 2012; Chang et al., 2007). […]

## C#CCNC1=CC(=O)c2ccccc2C1=O [Compound 2h, 2-(prop-2-yn-1-ylamino)naphthalene-1,4-dione]
c-fos
  reduction of c-fos gene expression compared to PTZ alone: about half

## O=C1C=C(NCc2ccccc2)C(=O)c2ccccc21 [Compound 2j, 2-(benzylamino)naphthalene-1,4-dione]
c-fos
  reduction of c-fos gene expression compared to PTZ alone: about half
HT22 cells
  protection from t-BuOOH induced cell death: capable of protecting HT22 cells from t-BuOOH

## O=C1C=C(NCc2cccc(Cl)c2)C(=O)c2ccccc21 [Compound 2q, 2-((3-chlorobenzyl)amino)naphthalene-1,4-dione]
c-fos
  reduction of c-fos gene expression compared to PTZ alone: about half
HT22 cells
  protection from t-BuOOH induced cell death: capable of protecting HT22 cells from t-BuOOH

## CC1=CC(=O)c2ccccc2C1=O [VK3, menadione, reference compound]
c-fos; 6 μM pre-treatment
  fold reduction of c-fos gene expression compared to PTZ alone: approximately 10 fold

## menaquinones [VK2, reference compound]
HT22 cells
  protection from t-BuOOH induced cell death: capable of protecting HT22 cells from t-BuOOH
